Source: paper PMC4439283 (The FEBS journal, 2015)
Read-outs that look alike come from different tables or passages of the source.

How the values were obtained:
[1] = molecular target: biotinylated ECL2S peptide (Biotin-GSGS-CCR5 R168-K197 C178S-GSGS) (human); assay: SPR
[2] = molecular target: biotinylated ECL2S peptide (Biotin-GSGS-CCR5 R168-K197 C178S-GSGS) (human); assay: SPR; remark: listed apart in the source
[3] = molecular target: biotinylated ECL2S peptide (Biotin-GSGS-CCR5 R168-K197 C178S-GSGS) (human); assay: SPR; remark: listed apart in the source
[4] = in solution; ref [16]; cited from earlier work
R5 viruses [5] = conditions: ref [15], cited from earlier work
X4 viruses [6] = conditions: ref [15]; cited from earlier work
R5 viruses [7] = conditions: ref [16]; cited from earlier work
X4 viruses [8] = conditions: ref [16]; cited from earlier work
X4 strain LAV = conditions: ref [15]; cited from earlier work

In the case of ^mutgp120_(core)/CD4M33 complex, the Kd [1] is reported as 7 µM, the Kd [2] is reported as 7.5 µM and the Kd [3] is reported as 6 µM.
In the case of “PL2: CCR5 ECL2 peptide, residues 168-191 (RSQKEGLHYTCSSHFPYSQYQFWK; UniProt P51681 168-191, looked up, fragment)”, the “conformation of free peptide” value [4] is given as “unstructured in solution”, the strain specificity (R5 viruses [5]; R5 strains) is given as “specific for R5 strains” and the “50% inhibition concentration, fusion” value (R5 viruses [5]; R5 virus Ba-L) is given as 20 µg/mL. For the same substance, the “fusion inhibition, R5 viruses” value (R5 viruses [5]; fusion of R5 viruses with target cells) was “inhibited the fusion of R5 viruses with target cells”, the “fusion inhibition, X4 viruses” value (X4 viruses [6]) was “did not inhibit fusion of X4 viruses” and the neutralization concentration range (R5 viruses [7]) was about 100 µM. The neutralization concentration range (X4 viruses [8]) was about 100 µM and the “neutralization of X4 strain LAV” value (X4 strain LAV) was “None of these peptides neutralized the X4 strain LAV”.
“^mutgp120_(core) (HIV-1 JR-FL gp120 88-492, ΔV1/V2, V3 replaced by GAG, non-aggregating mutant) (domain or fragment)” showed a Kd [3] of 18 µM.
